Where “and” joins values, the source holds several entries; their conditions need not be identical. Equal values may be shown once. Read-outs that look alike come from different tables or passages of the source.
System: S. aureus
Format: cell-based
Experimental: Drug solutions containing 10% ammonia were prepared in ethanol, and 0.1 ml of each solution was added to 0.9 ml of bacterial culture (50% trypticase soy broth +50% Bovine Calf Serum containing 10^8 cfu S. aureus/ml). After 10 minutes, a 0.1 ml aliquot was removed and added to 0.9 ml drug inactivating media (LTSB). […] The colony counts were then determined.

Oc1cc(Cl)ccc1Oc1ccc(Cl)cc1Cl [Triclosan, 2,4,4′-trichloro-2′-hydroxydiphenyl ether]
Growth in Culture: 2 × 10^7 cfu/ml and 1.2 × 10^7 cfu/ml
reduction in growth in culture (0.5 percent triclosan alone (Table 4 experiment)): 0 log
Growth in Culture (Solution: Triclosan 0.25%, Silver Sulfadiazine 0%, after 10 minutes, control 2.1 × 10^7): 1.2 × 10^7 cfu/ml
Growth in Culture (Solution: Triclosan 0.5%, Silver Sulfadiazine 0%, after 10 minutes, control 2.1 × 10^7): 1 × 10^7 cfu/ml
reduction in growth in culture compared to the control (triclosan alone at 0.25 percent (Table 3 experiment)): less than a power of 10
reduction in growth in culture compared to the control (triclosan alone at 0.5 percent (Table 3 experiment)): less than a power of 10
